Data: the kinase profiling compilation of Christmann-Franck et al. (2016)

Legend:
Experiment in all cases: KINOMEscan competition binding
Settings in all cases: compound 10.0 µM
AXL (human) = AXL (human) (UniProt P30530)
BMPR1B (human) = BMPR1B (human) (UniProt O00238)
BRSK1 (human) = BRSK1 (human) (UniProt Q8TDC3)
DDR1 (human) = DDR1 (human) (UniProt Q08345)
DDR2 (human) = DDR2 (human) (UniProt Q16832)
EPHA4 (human) = EPHA4 (human) (UniProt P54764)
EPHA8 (human) = EPHA8 (human) (UniProt P29322)
IKBKB (human) = IKBKB (human) (UniProt O14920)
[1] = target: JAK1 JH2 pseudokinase (human) (UniProt P23458)
KDR (human) = KDR (human) (UniProt P35968)
LIMK1 (human) = LIMK1 (human) (UniProt P53667)
MAP4K3 (human) = MAP4K3 (human) (UniProt Q8IVH8)
MAPK13 (human) = MAPK13 (human) (UniProt O15264)
MAPK15 (human) = MAPK15 (human) (UniProt Q8TD08)
MAPK7 (human) = MAPK7 (human) (UniProt Q13164)
MARK3 (human) = MARK3 (human) (UniProt P27448)
MERTK (human) = MERTK (human) (UniProt Q12866)
NEK2 (human) = NEK2 (human) (UniProt P51955)
NTRK2 (human) = NTRK2 (human) (UniProt Q16620)
NTRK3 (human) = NTRK3 (human) (UniProt Q16288)
PLK1 (human) = PLK1 (human) (UniProt P53350)
SIK2 (human) = SIK2 (human) (UniProt Q9H0K1)
SLK (human) = SLK (human) (UniProt Q9H2G2)
SRPK1 (human) = SRPK1 (human) (UniProt Q96SB4)
STK25 (human) = STK25 (human) (UniProt O00506)
TLK2 (human) = TLK2 (human) (UniProt Q86UE8)
[2] = tested on: EGFR (human), P00533 [747-751 del / S ins]
MAP4K5 (human) = MAP4K5 (human) (UniProt Q9Y4K4)
MAPK12 (human) = MAPK12 (human) (UniProt P53778)
ERN1 (human) = ERN1 (human) (UniProt O75460)
MAK (human) = MAK (human) (UniProt P20794)
SIK3 (human) = SIK3 (human) (UniProt Q9Y2K2)
YSK4 (human) = YSK4 (human) (UniProt Q56UN5)

BRSK1 (human), sequence (Q8TDC3 whole entry, looked up): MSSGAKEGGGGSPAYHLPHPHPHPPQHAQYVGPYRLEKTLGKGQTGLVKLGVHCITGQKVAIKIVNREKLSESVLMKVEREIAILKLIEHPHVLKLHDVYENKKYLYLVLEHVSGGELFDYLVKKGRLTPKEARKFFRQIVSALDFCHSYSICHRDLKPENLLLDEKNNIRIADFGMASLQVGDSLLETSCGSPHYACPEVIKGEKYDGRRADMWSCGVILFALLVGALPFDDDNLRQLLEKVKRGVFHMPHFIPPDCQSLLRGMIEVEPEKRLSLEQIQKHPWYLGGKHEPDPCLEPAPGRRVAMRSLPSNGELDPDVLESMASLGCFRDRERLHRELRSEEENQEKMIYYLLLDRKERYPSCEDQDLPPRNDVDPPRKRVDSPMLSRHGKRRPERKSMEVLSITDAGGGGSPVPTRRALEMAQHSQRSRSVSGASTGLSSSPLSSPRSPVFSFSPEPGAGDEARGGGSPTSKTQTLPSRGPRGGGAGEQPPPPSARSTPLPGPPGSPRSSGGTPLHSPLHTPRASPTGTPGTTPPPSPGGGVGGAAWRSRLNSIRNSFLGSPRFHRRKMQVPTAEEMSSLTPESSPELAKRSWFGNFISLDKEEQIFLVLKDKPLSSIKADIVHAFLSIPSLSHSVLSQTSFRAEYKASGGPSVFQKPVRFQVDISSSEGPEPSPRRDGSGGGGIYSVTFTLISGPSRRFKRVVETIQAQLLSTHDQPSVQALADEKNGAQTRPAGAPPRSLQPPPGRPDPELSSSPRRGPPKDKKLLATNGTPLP
MAPK7 (human), sequence (Q13164 whole entry, looked up): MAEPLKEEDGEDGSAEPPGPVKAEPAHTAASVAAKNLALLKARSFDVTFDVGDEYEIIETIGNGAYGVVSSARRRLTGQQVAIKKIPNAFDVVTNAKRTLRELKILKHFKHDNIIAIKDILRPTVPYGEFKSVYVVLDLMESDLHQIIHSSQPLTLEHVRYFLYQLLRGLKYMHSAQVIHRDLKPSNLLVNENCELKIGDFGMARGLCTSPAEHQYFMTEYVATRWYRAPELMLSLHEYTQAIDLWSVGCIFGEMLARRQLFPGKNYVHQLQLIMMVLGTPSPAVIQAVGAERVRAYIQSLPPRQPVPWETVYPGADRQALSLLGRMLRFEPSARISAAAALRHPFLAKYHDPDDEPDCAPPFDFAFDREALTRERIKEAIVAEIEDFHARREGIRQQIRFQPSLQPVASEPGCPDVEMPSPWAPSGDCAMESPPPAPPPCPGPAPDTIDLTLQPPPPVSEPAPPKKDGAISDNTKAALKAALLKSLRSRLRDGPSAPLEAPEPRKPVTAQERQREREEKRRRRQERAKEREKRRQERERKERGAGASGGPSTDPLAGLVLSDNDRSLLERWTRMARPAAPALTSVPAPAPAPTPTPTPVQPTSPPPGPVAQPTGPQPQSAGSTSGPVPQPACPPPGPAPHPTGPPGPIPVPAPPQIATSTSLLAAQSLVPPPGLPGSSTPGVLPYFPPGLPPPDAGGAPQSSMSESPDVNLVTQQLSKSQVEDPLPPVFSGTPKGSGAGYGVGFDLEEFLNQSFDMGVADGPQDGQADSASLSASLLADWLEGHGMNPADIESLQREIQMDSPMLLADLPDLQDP
LIMK1 (human), sequence (P53667 whole entry, looked up): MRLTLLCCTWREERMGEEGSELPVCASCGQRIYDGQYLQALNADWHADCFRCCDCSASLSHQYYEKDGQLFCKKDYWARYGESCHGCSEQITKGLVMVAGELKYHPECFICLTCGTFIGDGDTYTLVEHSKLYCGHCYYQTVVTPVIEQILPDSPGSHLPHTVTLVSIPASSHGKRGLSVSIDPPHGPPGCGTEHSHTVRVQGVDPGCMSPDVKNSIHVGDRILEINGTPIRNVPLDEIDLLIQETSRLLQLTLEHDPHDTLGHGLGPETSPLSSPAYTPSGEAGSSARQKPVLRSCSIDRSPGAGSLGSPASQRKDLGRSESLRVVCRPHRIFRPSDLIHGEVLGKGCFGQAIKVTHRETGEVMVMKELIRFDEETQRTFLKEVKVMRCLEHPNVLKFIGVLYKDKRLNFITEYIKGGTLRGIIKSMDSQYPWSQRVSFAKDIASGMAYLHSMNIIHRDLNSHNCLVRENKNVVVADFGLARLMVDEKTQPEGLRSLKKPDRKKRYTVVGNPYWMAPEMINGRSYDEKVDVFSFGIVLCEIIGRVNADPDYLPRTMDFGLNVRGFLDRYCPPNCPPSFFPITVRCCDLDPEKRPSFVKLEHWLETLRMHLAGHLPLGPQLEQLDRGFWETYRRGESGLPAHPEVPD
DDR1 (human), sequence (Q08345 whole entry, looked up): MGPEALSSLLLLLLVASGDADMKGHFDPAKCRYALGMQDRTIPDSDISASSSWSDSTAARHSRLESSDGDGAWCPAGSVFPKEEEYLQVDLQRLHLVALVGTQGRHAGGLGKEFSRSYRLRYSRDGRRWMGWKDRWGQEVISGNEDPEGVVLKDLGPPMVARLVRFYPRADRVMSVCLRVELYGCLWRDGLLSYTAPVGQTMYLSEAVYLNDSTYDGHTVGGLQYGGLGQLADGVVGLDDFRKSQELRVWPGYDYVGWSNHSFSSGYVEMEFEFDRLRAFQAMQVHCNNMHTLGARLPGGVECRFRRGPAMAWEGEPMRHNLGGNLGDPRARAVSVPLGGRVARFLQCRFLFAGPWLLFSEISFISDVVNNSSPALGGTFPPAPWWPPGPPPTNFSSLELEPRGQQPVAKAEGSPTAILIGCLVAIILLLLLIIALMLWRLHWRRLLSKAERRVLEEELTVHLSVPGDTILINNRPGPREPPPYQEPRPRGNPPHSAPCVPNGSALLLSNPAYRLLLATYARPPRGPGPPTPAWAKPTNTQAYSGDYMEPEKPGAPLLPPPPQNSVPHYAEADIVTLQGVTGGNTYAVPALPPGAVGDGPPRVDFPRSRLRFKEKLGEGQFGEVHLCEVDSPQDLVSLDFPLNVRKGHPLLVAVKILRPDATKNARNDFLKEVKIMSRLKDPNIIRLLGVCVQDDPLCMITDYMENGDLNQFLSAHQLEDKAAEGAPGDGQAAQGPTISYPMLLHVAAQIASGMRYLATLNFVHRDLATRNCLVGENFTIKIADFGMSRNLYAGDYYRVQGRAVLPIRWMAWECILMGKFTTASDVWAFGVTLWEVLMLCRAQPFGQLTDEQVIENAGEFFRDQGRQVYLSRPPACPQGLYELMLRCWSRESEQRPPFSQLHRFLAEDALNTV
MAP4K3 (human), sequence (Q8IVH8 whole entry, looked up): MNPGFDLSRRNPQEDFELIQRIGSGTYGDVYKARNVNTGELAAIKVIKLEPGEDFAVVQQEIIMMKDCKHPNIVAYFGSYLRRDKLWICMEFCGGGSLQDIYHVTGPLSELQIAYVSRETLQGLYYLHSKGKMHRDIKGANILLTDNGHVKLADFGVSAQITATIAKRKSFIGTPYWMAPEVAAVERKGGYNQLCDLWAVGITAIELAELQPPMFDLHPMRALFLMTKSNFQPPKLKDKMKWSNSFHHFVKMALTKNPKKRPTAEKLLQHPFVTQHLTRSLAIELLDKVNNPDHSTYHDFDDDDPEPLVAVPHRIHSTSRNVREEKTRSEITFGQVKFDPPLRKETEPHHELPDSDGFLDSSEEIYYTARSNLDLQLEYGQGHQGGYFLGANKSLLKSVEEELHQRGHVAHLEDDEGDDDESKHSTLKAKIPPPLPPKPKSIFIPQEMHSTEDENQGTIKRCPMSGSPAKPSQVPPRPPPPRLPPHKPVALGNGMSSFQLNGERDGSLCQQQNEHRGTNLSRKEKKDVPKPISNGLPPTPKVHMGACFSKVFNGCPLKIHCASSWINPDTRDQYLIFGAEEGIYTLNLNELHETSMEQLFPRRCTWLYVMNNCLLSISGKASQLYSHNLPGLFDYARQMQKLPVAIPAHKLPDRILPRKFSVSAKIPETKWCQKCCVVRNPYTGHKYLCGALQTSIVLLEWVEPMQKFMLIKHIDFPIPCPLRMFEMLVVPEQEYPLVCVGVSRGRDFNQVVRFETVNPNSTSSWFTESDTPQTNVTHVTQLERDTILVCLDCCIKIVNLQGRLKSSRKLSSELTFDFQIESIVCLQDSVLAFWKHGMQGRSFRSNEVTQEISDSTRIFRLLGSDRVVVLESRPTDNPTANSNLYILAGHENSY
MAP4K5 (human), sequence (Q9Y4K4 whole entry, looked up): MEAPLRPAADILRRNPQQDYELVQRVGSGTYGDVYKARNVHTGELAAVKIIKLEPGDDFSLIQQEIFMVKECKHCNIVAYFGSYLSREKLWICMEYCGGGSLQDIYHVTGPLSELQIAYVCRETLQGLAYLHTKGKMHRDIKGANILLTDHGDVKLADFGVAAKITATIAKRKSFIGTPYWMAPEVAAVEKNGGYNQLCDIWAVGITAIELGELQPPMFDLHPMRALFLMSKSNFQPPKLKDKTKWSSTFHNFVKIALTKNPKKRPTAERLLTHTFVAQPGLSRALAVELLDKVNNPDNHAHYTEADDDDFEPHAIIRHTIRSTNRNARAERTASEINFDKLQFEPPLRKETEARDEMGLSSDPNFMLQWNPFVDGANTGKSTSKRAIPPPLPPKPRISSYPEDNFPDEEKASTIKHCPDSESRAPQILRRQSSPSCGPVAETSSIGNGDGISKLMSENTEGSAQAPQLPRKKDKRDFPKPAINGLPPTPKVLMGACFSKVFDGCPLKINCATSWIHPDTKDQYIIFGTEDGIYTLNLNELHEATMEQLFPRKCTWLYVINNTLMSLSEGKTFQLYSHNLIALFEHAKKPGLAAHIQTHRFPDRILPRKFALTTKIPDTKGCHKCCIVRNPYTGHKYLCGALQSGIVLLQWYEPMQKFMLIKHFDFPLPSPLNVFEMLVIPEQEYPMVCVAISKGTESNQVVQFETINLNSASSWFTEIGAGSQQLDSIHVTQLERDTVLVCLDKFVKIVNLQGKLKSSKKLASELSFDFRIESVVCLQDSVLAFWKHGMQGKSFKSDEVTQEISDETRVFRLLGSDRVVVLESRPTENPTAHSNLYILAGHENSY

kinase still bound, per cent of control (AXL (human)) | kinase still bound, per cent of control (BMPR1B (human)) | kinase still bound, per cent of control (BRSK1 (human)) | kinase still bound, per cent of control (DDR1 (human)) | kinase still bound, per cent of control (DDR2 (human)) | kinase still bound, per cent of control (EPHA4 (human)) | kinase still bound, per cent of control (EPHA8 (human)) | kinase still bound, per cent of control [1] | kinase still bound, per cent of control (KDR (human)) | kinase still bound, per cent of control (LIMK1 (human)) | kinase still bound, per cent of control (MAP4K3 (human)) | kinase still bound, per cent of control (MAPK7 (human)) | kinase still bound, per cent of control (MARK3 (human)) | kinase still bound, per cent of control (MERTK (human)) | kinase still bound, per cent of control (NEK2 (human)) | kinase still bound, per cent of control (NTRK2 (human)) | kinase still bound, per cent of control (NTRK3 (human)) | kinase still bound, per cent of control (PLK1 (human)) | kinase still bound, per cent of control (SIK2 (human)) | SMILES | kinase still bound, per cent of control (MAPK15 (human)) | further results
1.3% | 3.4% | 100% | 100% | 100% | 100% | 100% | 0.05% | 100% | 100% | 1% | 100% | 13% | 0.25% | 100% | 0% | 0.4% | 19% | 9.8% | CNC(=O)c1ccc(Nc2cc(Nc3ccccc3S(=O)(=O)C(C)C)c3cc[nH]c3n2)nc1 | 8% | kinase still bound, per cent of control [2]: 100%; kinase still bound, per cent of control (IKBKB (human)): 100%; kinase still bound, per cent of control (MAP4K5 (human)): 1.8%; kinase still bound, per cent of control (MAPK12 (human)): 100%; kinase still bound, per cent of control (MAPK13 (human)): 100%; kinase still bound, per cent of control (SLK (human)): 0%; kinase still bound, per cent of control (SRPK1 (human)): 2%; kinase still bound, per cent of control (STK25 (human)): 100%; kinase still bound, per cent of control (TLK2 (human)): 100%
100% | 100% | 100% | 100% | 100% | 100% | 100% | 100% | 100% | 100% | 100% | 100% | 100% | 100% | 100% | 100% | 100% | 100% | 100% | CS(=O)(=O)N1CCN(Cc2cc3nc(-c4cccc5[nH]ncc45)nc(N4CCOCC4)c3s2)CC1 | 100% | kinase still bound, per cent of control [2]: 100%; kinase still bound, per cent of control (ERN1 (human)): 100%; kinase still bound, per cent of control (IKBKB (human)): 100%; kinase still bound, per cent of control (MAK (human)): 100%; kinase still bound, per cent of control (MAP4K5 (human)): 100%; kinase still bound, per cent of control (MAPK12 (human)): 100%; kinase still bound, per cent of control (MAPK13 (human)): 100%; kinase still bound, per cent of control (SIK3 (human)): 100%; kinase still bound, per cent of control (SLK (human)): 100%; kinase still bound, per cent of control (SRPK1 (human)): 100%; kinase still bound, per cent of control (STK25 (human)): 100%; kinase still bound, per cent of control (TLK2 (human)): 100%; kinase still bound, per cent of control (YSK4 (human)): 100%
100% | 100% | 100% | 1.1% | 100% | 100% | 100% | 100% | 21% | 100% | 100% | 36% | 100% | 100% | 100% | 100% | 100% | 100% | 100% | CCN(CC)CCCCNc1ncc2cc(-c3cc(OC)cc(OC)c3)c(NC(=O)NC(C)(C)C)nc2n1 | 100% | kinase still bound, per cent of control (MAP4K5 (human)): 100%; kinase still bound, per cent of control (MAPK12 (human)): 100%; kinase still bound, per cent of control (SLK (human)): 100%; kinase still bound, per cent of control (SRPK1 (human)): 100%; kinase still bound, per cent of control (STK25 (human)): 9.4%; kinase still bound, per cent of control (TLK2 (human)): 100%
100% | 100% | 100% | 0% | 100% | 100% | 100% | 100% | 0.45% | 100% | 7.4% | 9.7% | 100% | 100% | 100% | 100% | 100% | 100% | 100% | C=CC(=O)Nc1ccc(CN(C(=O)Nc2c(Cl)c(OC)cc(OC)c2Cl)c2cc(Nc3ccc(N4CCN(C)CC4)cc3)ncn2)cc1 | 100% | kinase still bound, per cent of control [2]: 0.65%; kinase still bound, per cent of control (IKBKB (human)): 100%; kinase still bound, per cent of control (MAP4K5 (human)): 2.3%; kinase still bound, per cent of control (MAPK12 (human)): 100%; kinase still bound, per cent of control (MAPK13 (human)): 4.9%; kinase still bound, per cent of control (SLK (human)): 9.8%; kinase still bound, per cent of control (SRPK1 (human)): 100%; kinase still bound, per cent of control (STK25 (human)): 100%; kinase still bound, per cent of control (TLK2 (human)): 100%

SMILES | kinase still bound, per cent of control (AXL (human)) | kinase still bound, per cent of control (BMPR1B (human)) | kinase still bound, per cent of control (BRSK1 (human)) | kinase still bound, per cent of control (DDR1 (human)) | kinase still bound, per cent of control (DDR2 (human)) | kinase still bound, per cent of control (EPHA4 (human)) | kinase still bound, per cent of control (EPHA8 (human)) | kinase still bound, per cent of control [1] | kinase still bound, per cent of control (KDR (human)) | kinase still bound, per cent of control (LIMK1 (human)) | kinase still bound, per cent of control (MAP4K3 (human)) | kinase still bound, per cent of control (MAPK7 (human)) | kinase still bound, per cent of control (MARK3 (human)) | kinase still bound, per cent of control (MERTK (human)) | kinase still bound, per cent of control (NEK2 (human)) | kinase still bound, per cent of control (NTRK2 (human)) | kinase still bound, per cent of control (NTRK3 (human)) | kinase still bound, per cent of control (PLK1 (human)) | kinase still bound, per cent of control (SIK2 (human)) | kinase still bound, per cent of control (MAPK15 (human)) | further results
Cc1n[nH]c2ccc(-c3cncc(OC[C@@H](N)Cc4c[nH]c5ccccc45)c3)cc12 | 14% | 100% | 100% | 100% | 100% | 100% | 100% | 100% | 100% | 100% | 9.5% | 100% | 9.4% | 33% | 100% | 100% | 100% | 100% | 100% | 0% | kinase still bound, per cent of control (IKBKB (human)): 34%; kinase still bound, per cent of control (MAPK13 (human)): 4.4%; kinase still bound, per cent of control (SLK (human)): 100%; kinase still bound, per cent of control (SRPK1 (human)): 17%; kinase still bound, per cent of control (STK25 (human)): 100%; kinase still bound, per cent of control (TLK2 (human)): 100%
